# Patent US10030047B2 (Hoffmann-La Roche Inc., priority 2015, dated 2018)
# Test system: A. baumannii strain ATCC19606
# Assay: Minimum inhibitory concentration (MIC) determination, microbroth dilution (CLSI)
# Type: cell-based
# Details: Acinetobacter baumannii; A. baumannii ATCC19606; CAMHB; read after 20 hours; >=80% growth inhibition; read-out: ATCC19606 MIC
# Outline: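 After 20 h at 35±2 °C, MIC taken visually and by OD 600 nm as the lowest concentration giving ≥80% growth inhibition. Bacteria (~5×10^5 CFU/ml) were tested per CLSI microbroth dilution against twofold serial compound dilutions in cation-adjusted Mueller Hinton broth.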
row,Structure (SMILES),MIC [µg/mL]
1,"NCCCC[C@@H]1NC(=O)[C@H](CCCN)NCc2cccnc2Sc2c(Cl)cc(Cl)cc2CNC(=O)[C@H](Cc2c[nH]c3ccccc23)NC1=O [Example 81, (11S,14S,17S)-14-(4-Amino-butyl)-11-(3-amino-propyl)-23,25-dichloro-17-(1H-indol-3-ylmethyl)-2-thia-4,10,13,16,19-pentaaza-tricyclo[19.4.0.0*3,8*1]pentacosa-1(25),3(8),4,6,21,23-hexaene-12,15,18-trione]",1
2,"NCCCC[C@@H]1NC(=O)[C@H](CCCN)NCc2cccnc2Sc2c(Cl)ccc(Cl)c2CNC(=O)[C@H](Cc2c[nH]c3ccccc23)NC1=O [Example 82, (11S,14S,17S)-14-(4-Amino-butyl)-11-(3-amino-propyl)-22,25-dichloro-17-(1H-indol-3-ylmethyl)-2-thia-4,10,13,16,19-pentaaza-tricyclo[19.4.0.0*3,8*]pentacosa-1(25),3(8),4,6,21,23-hexaene-12,15,18-trione]",4
3,"CCN1C(=O)[C@H](CCCCN)NC(=O)[C@H](CCCN)NCc2cccnc2Sc2c(C)cc(Br)cc2CNC(=O)[C@@H]1Cc1c[nH]c2ccccc12 [Example 84, (11S,14S,17S)-14-(4-Amino-butyl)-11-(3-amino-propyl)-23-bromo-16-ethyl-17-(1H-indol-3-ylmethyl)-25-methyl-2-thia-4,10,13,16,19-pentaaza-tricyclo[19.4.0.0*3,8*]pentacosa-1(25),3(8),4,6,21,23-hexaene-12,15,18-trione]",0.12
4,"CN1C(=O)[C@H](CCCCN)NC(=O)[C@H](Cc2cncn2C)NCc2cccnc2Sc2c(Cl)cc(C(F)(F)F)cc2CNC(=O)[C@@H]1Cc1c[nH]c2ccccc12 [Example 85, (11S,14S,17S)-14-(4-Amino-butyl)-25-chloro-17-(1H-indol-3-ylmethyl)-16-methyl-11-(3-methyl-3H-imidazol-4-ylmethyl)-23-trifluoromethyl-2-thia-4,10,13,16,19-pentaaza-tricyclo[19.4.0.0*3,8*]pentacosa-1(25),3(8),4,6,21,23-hexaene-12,15,18-trione]",0.5
5,"CN1C(=O)[C@H](CCCCN)NC(=O)[C@H](Cc2cccnc2)NCc2cccnc2Sc2c(Cl)cc(C(F)(F)F)cc2CNC(=O)[C@@H]1Cc1c[nH]c2ccccc12 [Example 86, (11S,14S,17S)-14-(4-Amino-butyl)-25-chloro-17-(1H-indol-3-ylmethyl)-16-methyl-11-pyridin-3-ylmethyl-23-trifluoromethyl-2-thia-4,10,13,16,19-pentaaza-tricyclo[19.4.0.0*3,8*]pentacosa-1(25),3(8),4,6,21,23-hexaene-12,15,18-trione]",16

# Further lines, results first:
row,MIC [µg/mL],Structure (SMILES)
1,8,"CN1C(=O)[C@H](CCCCN)NC(=O)[C@H](CCCN)NCc2cccnc2Sc2c(cc(-c3ccccc3)cc2C(F)(F)F)CNC(=O)[C@@H]1Cc1c[nH]c2ccccc12 [Example 87, (11S,14S,17S)-14-(4-Amino-butyl)-11-(3-amino-propyl)-17-(1H-indol-3-ylmethyl)-16-methyl-23-phenyl-25-trifluoromethyl-2-thia-4,10,13,16,19-pentaaza-tricyclo[19.4.0.0*3,8*]pentacosa-1(25),3,5,7,21,23-hexaene-12,15,18-trione]"
2,0.25,"CN1C(=O)[C@H](CCCCN)NC(=O)[C@H](CCCN)NCc2cccnc2Sc2c(cc(Br)cc2C(F)(F)F)CNC(=O)[C@@H]1Cc1c[nH]c2ccccc12 [Example 88, (11S,14S,17S)-14-(4-Amino-butyl)-11-(3-amino-propyl)-23-bromo-17-(1H-indol-3-ylmethyl)-16-methyl-25-trifluoromethyl-2-thia-4,10,13,16,19-pentaaza-tricyclo[19.4.0.0*3,8*]pentacosa-1(25),3,5,7,21,23-hexaene-12,15,18-trione]"
